Laboratory results taken from doi:10.1101/2023.10.01.560353v1 (bioRxiv, 2023).
Values after ≈ are worked out from the molar mass of the structure shown. Peptide text beside a SMILES is read from it.

Tested on: 11 clinically relevant bacterial pathogens
Test: MIC over the panel of pathogens
Format: cell-based
Conditions: Table S17; lowest MIC over the strains tested

## CC[C@H](C)[C@H](NC(=O)[C@H](CCCCN)NC(=O)[C@H](CC(C)C)NC(=O)[C@H](Cc1c[nH]cn1)NC(=O)[C@@H](N)CC(C)C)C(=O)N[C@@H](CC(C)C)C(=O)N[C@@H](CCCCN)C(=O)N[C@H](C(=O)N[C@H](C(=O)N[C@@H](CCCNC(=N)N)C(=O)N[C@@H](CC(C)C)C(=O)N[C@@H](CC(C)C)C(=O)O)[C@@H](C)CC)[C@@H](C)CC [Elephasin-1] (H-LHLKILKIIRLL-OH)
  MIC (lowest MIC value obtained in the antimicrobial activity assays): 4000 mM (≈ 5890 mg/mL)

## CC[C@H](C)[C@H](NC(=O)[C@H](CC(C)C)NC(=O)[C@H](Cc1c[nH]cn1)NC(=O)[C@@H](NC(=O)[C@H](CC(C)C)NC(=O)[C@H](CC(C)C)NC(=O)[C@H](Cc1c[nH]cn1)NC(=O)CN)[C@@H](C)CC)C(=O)NCC(=O)N[C@@H](CCCCN)C(=O)N[C@@H](C)C(=O)N[C@H](C(=O)N[C@@H](CC(C)C)C(=O)N[C@@H](C)C(=O)N[C@@H](CC(C)C)C(=O)O)[C@@H](C)O [Arctoterin-1] (H-GHLLIHLIGKATLAL-OH)
  MIC (lowest MIC value obtained in the antimicrobial activity assays): 64000 mM (≈ 100000 mg/mL)

## CC[C@H](C)[C@H](N)C(=O)N[C@@H](CC(C)C)C(=O)N[C@@H](CC(C)C)C(=O)N[C@H](C(=O)N[C@H](C(=O)N[C@@H](C)C(=O)N[C@H](C(=O)N[C@@H](C)C(=O)N[C@H](C(=O)N[C@@H](CCCCN)C(=O)N[C@@H](CC(C)C)C(=O)NCC(=O)N[C@@H](CC(C)C)C(=O)O)[C@@H](C)CC)[C@@H](C)CC)[C@@H](C)O)[C@@H](C)O [Ararin-1] (H-ILLTTAIAIKLGL-OH)
  MIC (lowest MIC value obtained in the antimicrobial activity assays): 32000 mM (≈ 42900 mg/mL)

## CC[C@H](C)[C@H](NC(=O)[C@H](CC(C)C)NC(=O)[C@@H](NC(=O)[C@H](CCCCN)NC(=O)[C@H](Cc1c[nH]c2ccccc12)NC(=O)[C@@H](NC(=O)[C@H](CCCCN)NC(=O)[C@H](CC(=O)O)NC(=O)[C@@H](NC(=O)[C@H](CC(C)C)NC(=O)[C@H](Cc1ccccc1)NC(=O)[C@H](C)NC(=O)CNC(=O)[C@@H](NC(=O)[C@@H](N)CCCCN)C(C)C)C(C)C)C(C)C)[C@@H](C)O)C(=O)O [Anomalopterin-2] (H-KVGAFLVDKVWKTLI-OH)
  MIC (lowest MIC value obtained in the antimicrobial activity assays): 32000 mM (≈ 54900 mg/mL)

## CC[C@H](C)[C@H](NC(=O)[C@H](CCCCN)NC(=O)[C@H](CC(C)C)NC(=O)[C@@H](NC(=O)[C@@H](N)CCCCN)[C@@H](C)O)C(=O)N[C@H](C(=O)N[C@@H](CCCNC(=N)N)C(=O)N[C@@H](CC(C)C)C(=O)N[C@@H](CC(C)C)C(=O)N[C@@H](Cc1ccccc1)C(=O)O)[C@@H](C)CC [Mammuthusin-3] (H-KTLKIIRLLF-OH)
  MIC (lowest MIC value obtained in the antimicrobial activity assays): 16000 mM (≈ 19900 mg/mL)

## CC[C@H](C)[C@H](NC(=O)[C@@H]1CCCN1C(=O)[C@H](CC(N)=O)NC(=O)[C@@H]1CCCN1C(=O)[C@@H]1CCCN1C(=O)[C@H](CCCCN)NC(=O)[C@@H](N)CCCCN)C(=O)N[C@@H](CCCCN)C(=O)N1CCC[C@H]1C(=O)N[C@@H](CCCCN)C(=O)N[C@H](C(=O)N1CCC[C@H]1C(=O)N[C@@H](CC(C)C)C(=O)N[C@@H](CO)C(=O)N[C@@H](C)C(=O)N1CCC[C@H]1C(=O)N[C@@H](CCCNC(=N)N)C(=O)N[C@@H](CCCCN)C(=O)N[C@@H](CO)C(=O)N1CCC[C@H]1C(=O)N[C@@H](CC(N)=O)C(=O)N[C@H](C(=O)N[C@H](C(=O)N[C@@H](CCCCN)C(=O)N[C@@H](Cc1ccc(O)cc1)C(=O)N[C@@H](CCCNC(=N)N)C(=O)N[C@@H](CC(C)C)C(=O)N[C@@H](CCCCN)C(=O)N[C@@H](Cc1ccccc1)C(=O)N[C@@H](CCCNC(=N)N)C(=O)O)C(C)C)[C@@H](C)O)C(C)C [Mammuthusin-5] (H-KKPPNPIKPKVPLSAPRKSPNTVKYRLKFR-OH)
  MIC (lowest MIC value obtained in the antimicrobial activity assays): 32000 mM (≈ 112000 mg/mL)

## CC[C@H](C)[C@H](NC(=O)[C@H](CC(C)C)NC(=O)[C@H](CCCNC(=N)N)NC(=O)[C@H](Cc1c[nH]c2ccccc12)NC(=O)[C@H](CC(C)C)NC(=O)[C@@H](NC(=O)[C@H](CCCNC(=N)N)NC(=O)[C@H](CCC(N)=O)NC(=O)[C@H](Cc1ccc(O)cc1)NC(=O)[C@H](CC(C)C)NC(=O)[C@@H](N)CCCCN)[C@@H](C)CC)C(=O)N[C@@H](CO)C(=O)N[C@@H](CCC(=O)O)C(=O)N[C@@H](CC(C)C)C(=O)O [Equusin-3] (H-KLYQRILWRLISEL-OH)
  MIC (lowest MIC value obtained in the antimicrobial activity assays): 4000 mM (≈ 7320 mg/mL)

## CC[C@H](C)[C@H](NC(=O)CNC(=O)[C@H](Cc1c[nH]cn1)NC(=O)[C@H](CC(N)=O)NC(=O)[C@H](CCCCN)NC(=O)[C@H](CCC(N)=O)NC(=O)[C@@H](N)CCCNC(=N)N)C(=O)N[C@@H](Cc1c[nH]cn1)C(=O)N[C@@H](Cc1ccccc1)C(=O)N[C@@H](CCCNC(=N)N)C(=O)N[C@H](C(=O)N[C@@H](CC(C)C)C(=O)N[C@@H](C)C(=O)N[C@@H](CCCCN)C(=O)N[C@@H](C)C(=O)N[C@@H](CC(C)C)C(=O)N[C@@H](CCCNC(=N)N)C(=O)O)C(C)C [Hesperelin-3] (H-RQKNHGIHFRVLAKALR-OH)
  MIC (lowest MIC value obtained in the antimicrobial activity assays): 64000 mM (≈ 131000 mg/mL)

## CC[C@H](C)[C@H](NC(=O)[C@@H](NC(=O)[C@H](Cc1c[nH]c2ccccc12)NC(=O)[C@H](CCCCN)NC(=O)[C@@H](N)CCCCN)C(C)C)C(=O)N[C@@H](CCCCN)C(=O)N[C@@H](CO)C(=O)N[C@H](C(=O)N[C@H](C(=O)N[C@@H](Cc1ccccc1)C(=O)N[C@@H](Cc1ccccc1)C(=O)N[C@@H](CCCCN)C(=O)O)C(C)C)C(C)C [Hesperelin-2] (H-KKWVIKSVVFFK-OH)
  MIC (lowest MIC value obtained in the antimicrobial activity assays): 8000 mM (≈ 12100 mg/mL)

## CC[C@H](C)[C@H](N)C(=O)N[C@@H](Cc1ccccc1)C(=O)N[C@@H](CC(C)C)C(=O)N[C@@H](Cc1c[nH]cn1)C(=O)N[C@@H](CC(C)C)C(=O)N[C@@H](CCCCN)C(=O)N[C@H](C(=O)N[C@@H](CC(C)C)C(=O)N[C@@H](CCCCN)C(=O)N[C@H](C(=O)N[C@H](C(=O)N[C@@H](Cc1c[nH]cn1)C(=O)N[C@@H](CC(C)C)C(=O)N[C@@H](CC(C)C)C(=O)O)[C@@H](C)CC)[C@@H](C)CC)[C@@H](C)O [Mammuthusin-1] (H-IFLHLKTLKIIHLL-OH)
  MIC (lowest MIC value obtained in the antimicrobial activity assays): 4000 mM (≈ 6810 mg/mL)

## CC[C@H](C)[C@H](NC(=O)[C@H](CCCCN)NC(=O)[C@H](CC(C)C)NC(=O)[C@H](CCC(N)=O)NC(=O)[C@H](Cc1ccccc1)NC(=O)[C@@H](NC(=O)[C@@H](NC(=O)[C@H](Cc1ccccc1)NC(=O)[C@H](CC(C)C)NC(=O)[C@@H](NC(=O)[C@@H](N)CC(C)C)[C@@H](C)O)[C@@H](C)CC)[C@@H](C)CC)C(=O)N[C@@H](CO)C(=O)N[C@@H](CCCCN)C(=O)N[C@@H](CC(C)C)C(=O)O [Paleopropin-1] (H-LTLFIIFQLKISKL-OH)
  MIC (lowest MIC value obtained in the antimicrobial activity assays): 32000 mM (≈ 53700 mg/mL)

## CC[C@H](C)[C@H](NC(=O)[C@H](CCCNC(=N)N)NC(=O)[C@H](Cc1c[nH]cn1)NC(=O)[C@H](CCCCN)NC(=O)[C@@H](NC(=O)CNC(=O)[C@H](CCCNC(=N)N)NC(=O)[C@H](C)NC(=O)[C@H](CCCCN)NC(=O)[C@@H](NC(=O)[C@H](C)NC(=O)[C@@H]1CCCN1C(=O)[C@H](CC(C)C)NC(=O)[C@H](CCC(N)=O)NC(=O)[C@H](CO)NC(=O)[C@H](Cc1ccccc1)NC(=O)[C@H](CC(C)C)NC(=O)[C@H](CC(C)C)NC(=O)[C@@H](NC(=O)[C@@H](N)CS)C(C)C)C(C)C)[C@@H](C)O)C(=O)N[C@@H](CCCCN)C(=O)N[C@@H](Cc1c[nH]c2ccccc12)C(=O)N[C@@H](CC(N)=O)C(=O)N[C@@H](CCCNC(=N)N)C(=O)N[C@@H](CCCCN)C(=O)O [Equusin-4] (H-CVLLFSQLPAVKARGTKHRIKWNRK-OH)
  MIC (lowest MIC value obtained in the antimicrobial activity assays): 16000 mM (≈ 47200 mg/mL)

## CC[C@H](C)[C@H](NC(=O)[C@H](Cc1ccc(O)cc1)NC(=O)[C@H](C)NC(=O)[C@@H](N)CCCNC(=N)N)C(=O)N[C@@H](CS)C(=O)N[C@@H](CCCNC(=N)N)C(=O)N[C@@H](CCCCN)C(=O)N[C@@H](CCCCN)C(=O)N[C@@H](Cc1ccccc1)C(=O)N[C@@H](CC(C)C)C(=O)N[C@@H](CO)C(=O)N[C@@H](CC(C)C)C(=O)N[C@@H](CCCNC(=N)N)C(=O)N[C@@H](CCCCN)C(=O)N[C@@H](C)C(=O)N[C@@H](CO)C(=O)N[C@H](C(=O)N[C@@H](CCCCN)C(=O)N[C@@H](CC(C)C)C(=O)N[C@@H](CCC(N)=O)C(=O)N[C@@H](CO)C(=O)N[C@@H](CC(C)C)C(=O)N[C@H](C(=O)N[C@@H](CCCNC(=N)N)C(=O)N[C@@H](CCSC)C(=O)N[C@@H](CCCCN)C(=O)O)C(C)C)[C@@H](C)CC [Equusin-2] (H-RAYICRKKFLSLRKASIKLQSLVRMK-OH)
  MIC (lowest MIC value obtained in the antimicrobial activity assays): 8000 mM (≈ 25100 mg/mL)

## CC[C@H](C)[C@H](NC(=O)[C@H](Cc1ccccc1)NC(=O)[C@@H](N)CCCCN)C(=O)N[C@@H](CC(C)C)C(=O)N[C@@H](CC(N)=O)C(=O)N[C@@H](Cc1ccccc1)C(=O)N[C@@H](CCCCN)C(=O)N[C@H](C(=O)N1CCC[C@H]1C(=O)N[C@H](C(=O)N[C@@H](CO)C(=O)N[C@@H](Cc1ccccc1)C(=O)N[C@@H](CCCCN)C(=O)O)[C@@H](C)CC)[C@@H](C)CC [Pinguinusin-1] (H-KFILNFKIPISFK-OH)
  MIC (lowest MIC value obtained in the antimicrobial activity assays): 4000 mM (≈ 6380 mg/mL)

## CC[C@H](C)[C@H](NC(=O)[C@H](CC(N)=O)NC(=O)[C@H](CC(C)C)NC(=O)[C@@H](NC(=O)[C@H](Cc1ccccc1)NC(=O)[C@@H]1CCCN1C(=O)[C@@H]1CCCN1C(=O)[C@@H](NC(=O)[C@H](CO)NC(=O)[C@H](CC(C)C)NC(=O)[C@H](CCCCN)NC(=O)[C@H](CCCCN)NC(=O)[C@H](Cc1ccc(O)cc1)NC(=O)[C@@H](NC(=O)[C@@H](N)CCCCN)[C@@H](C)CC)[C@@H](C)O)[C@@H](C)O)C(=O)N[C@@H](CCCNC(=N)N)C(=O)N[C@H](C(=O)N[C@@H](CC(C)C)C(=O)N1CCC[C@H]1C(=O)N[C@@H](CCCCN)C(=O)N[C@H](C(=O)N[C@@H](CCCCN)C(=O)N[C@@H](Cc1ccccc1)C(=O)N1CCC[C@H]1C(=O)N[C@@H](CCCCN)C(=O)O)C(C)C)[C@@H](C)O [Mylodonin-3] (H-KIYKKLSTPPFTLNIRTLPKVKFPK-OH)
  MIC (lowest MIC value obtained in the antimicrobial activity assays): 16000 mM (≈ 47300 mg/mL)

## CC[C@H](C)[C@H](NC(=O)[C@H](Cc1c[nH]cn1)NC(=O)[C@@H](N)CC(C)C)C(=O)NCC(=O)N[C@@H](CC(C)C)C(=O)N[C@H](C(=O)N[C@@H](CCCCN)C(=O)N[C@H](C(=O)N[C@@H](Cc1ccc(O)cc1)C(=O)N[C@@H](CC(C)C)C(=O)NCC(=O)N[C@@H](CO)C(=O)N[C@@H](Cc1ccccc1)C(=O)N[C@@H](C)C(=O)N[C@@H](CC(C)C)C(=O)O)[C@@H](C)O)[C@@H](C)CC [Eudyptin-1] (H-LHIGLIKTYLGSFAL-OH)
  MIC (lowest MIC value obtained in the antimicrobial activity assays): 64000 mM (≈ 105000 mg/mL)
